Read-outs that look alike come from different tables or passages of the source.
Assays:
[1] = Molar absorptivity at 480 nm in borate buffer pH 9; assay type: physicochemical; details: borate buffer pH 9, five repetitions; in M-1·cm-1 (unit assumed)
Description: The molar absorptivity was determined in borate buffer solutions at pH 9 (five repetitions). To define the exact complex concentration an understoichiometric amount of ferric iron was used and the excess of free ligand was tolerated, as the ligand is not electroactive.

[2] = Diffusion coefficients of ferric complexes from voltammetry; assay type: physicochemical; details: pH 9, borate buffer, this work
Description: The experiments also permit calculation of the diffusion coefficients (five solutions in the concentration range between 0.3 and 0.8 mM) (Table 3). Literature values for the Fe^3+ diffusion coefficient range from 3.3-6.5×10^−6 cm^2/s in acidic media to 8.6×10^−6 cm^2/s complexed as K3Fe(CN)6 in strongly basic media.

[3] = literature (Yunta et al. 2003); in M-1·cm-1 (unit assumed); cited from earlier work
[4] = Cyclic voltammetry in borate buffer at Hg/Cu/GC electrodes; details: for E1/2 / ipa/ipc / jpc (peak current density) / ΔEp: 0.5 mM, 50 mM borate buffer pH 9, 0.1M NaClO4
Description: (§1) A Pt rod served as counter electrode, potentials refer to a (Ag/AgCl, 1 M NaCl) reference electrode. For each CV experiment at the mercury electrode, nine single measurements were recorded and averaged in order to minimize errors originating from drop size fluctuations. Copper electrodes were precleaned with 6 M HNO3 before use and equilibrated in electrolyte solution by running repetitive cycles. The planar glassy carbon electrode (Metrohm, 5 mm diameter) was polished on a polishing micro cloth (Buehler) with 0.05 μM alumina (Buehler) to a mirror like finish between the measurement series.
To avoid disturbing influences of local changes in pH within the diffusion layer of the electrodes, cyclic voltammetry with use of buffered solutions was performed.
A 100 mM NaClO4 background supporting electrolyte was used to maintain diffusion limited conditions and high solution conductivity. 50 mM boric acid was added to the NaClO4 supporting electrolyte and adjusted with NaOH to the desired pH value.

[5] = Cyclic voltammetry of Fe-EDDHA complexes in unbuffered 0.1 M NaClO4
Description: In order to minimize undesired ligand exchange reactions and solely observe the effect of pH on the redox properties, 0.1 M NaClO4 was chosen as electrolyte for the first set of experiments.
as §1

[6] = cited from earlier work
[7] = 0.5 mM, unbuffered 0.1M NaClO4, pH 9, Hg electrode
[8] = 0.5 mM, unbuffered 0.1M NaClO4, pH 9, Hg electrode, vs Ag/AgCl 1 M NaCl

## O=C([O-])C(NCCNC(C(=O)[O-])c1ccccc1[O-])c1ccccc1[O-].[Fe+3] (stereo not shown) [Fe-mesoEDDHA]
[1]
  Molar absorptivity (ε480 nm), this work: 4546 ± 120
[2]
  Diffusion coefficient Do: 5.78 10^−6 cm^2/s
[3]
  Molar absorptivity (ε480 nm), lit.: 4574 ± 53
[4]; Cu electrode
  E1/2: −619 mV
  ipa/ipc: 1.06
  jpc (peak current density): 520 nA/mm^2
  ΔEp: 132 mV
[4]; GC electrode
  E1/2: −616 mV
  ipa/ipc: 0.94 1
  jpc (peak current density): 817 nA/mm^2
  ΔEp: 67 mV
[4]; Hg electrode
  E1/2: −615 mV
  ipa/ipc: 0.93 1
  jpc (peak current density): 1167 nA/mm^2
  ΔEp: 64 mV
[4]; borate buffered solution, below pH 8 (racemic) / below pH 9 (meso)
  slope of E1/2 vs pH: −38 mV/pH
[4]; pH 9, vs Ag/AgCl 1 M NaCl reference electrode
  redox potential: −615 mV
[5]; [7]
  ipa: 255 nA
  ipa/ipc: 0.93
  ipc: −275 nA
  ΔEP: 72 mV
[5]; [8]
  E1/2: −621 mV
  Epa: −585 mV
  Epc: −657 mV
[5]; unbuffered 0.1 M NaClO4
  pH range in which the voltammograms were independent on pH: 6-9
[5]; without buffer
  pH above which the complex hydrolyses: > 9

## [Fe+3] [Fe^3+]
[6]; acidic media
  Diffusion coefficient, literature values: 3.3-6.5 ×10^−6 cm^2/s
[6]; pH 0-1, source a (literature)
  Diffusion coefficient Do: 3.3-6.5 10^−6 cm^2/s
